Values of other authors in article PMC6377828 (Clinical cancer research : an official journal of the …, 2018).
Like-named read-outs stand apart in the source and are kept apart here.

Tested on: αvβ6-expressing xenograft tumor
Conditions: murine xenograft models

In the case of [^18F]FBA-A20FMDV2, the tumor uptake (1 h) is listed as 0.66 % ID/g and the tumor uptake (4 h) is listed as 0.06 % ID/g.
